Test results from paper PMC8447191, “Peptide Amphiphilic-Based Supramolecular Structures with Anti-HIV-1 Activity” (Bioconjugate Chemistry, 2021).
pIC50: −log10 of the molar value. *1 amine or outer side, *2 acyl side, *3 side chain or, on linkers, in order; H or OH if unused. Where a SMILES comes first, the peptide text is derived from it. Side-chain parts run from the residue outwards. [ ]: non-standard residue; d: D form. The star is where a group is joined. PEG28 = NCCOCCOCCOCCOCCOCCOCCOCCOCCOCCOCCOCCOCCOCCOCCOCCOCCOCCOCCOCCOCCOCCOCCOCCOCCOCCOCCOCCOCCC(=O)O; X2 = CC(C)CCC[C@@H](C)[C@H]1CC[C@H]2[C@@H]3CC=C4C[C@@H](OC(=O)C*)CC[C@]4(C)[C@H]3CC[C@]12C; N(octadecyl)2 = CCCCCCCCCCCCCCCCCCN(CCCCCCCCCCCCCCCCCC)*; NHOctadecyl = CCCCCCCCCCCCCCCCCCN*; PEG4 = NCCOCCOCCOCCOCCC(=O)O; Suc = O=C(CCC(=O)[*:2])[*:1]

Experiments:
MTT cytotoxicity assay = format: cell-based; settings: human, HeLa-env cells, PAs coassembled with 5% FAM, 40-2.3 μM, absorbance 560 nm
Method: The metabolic activity of the cell line, related to the cytotoxic effect of the compounds to be tested, is measured after 24 h using the MTT assay. This assay is based on the metabolic reduction of 3-(4,5-dimethylthiazol-2-yl)-2,5-diphenyl-2H-tetrazolium bromide (MTT), carried out by the mitochondrial enzyme succinate dehydrogenase, in a colored compound of blue color (formazan) that can be monitored by absorbance spectroscopy at 560 nm, allowing determination of the mitochondrial functionality of the treated cells.
The HeLa-env cell line is seeded in 96-well plates with an initial density of 15,000 cells per well in 100 μL of culture medium (Dulbecco’s modified Eagle’s medium, DMEM, with 10% FBS added) and incubated for 24 h at 37 °C and 5% CO2 to allow their adhesion. The cell monolayers are washed with PBS, and then 100 μL of PAs formulations (peptide amphiphiles coassembled with 5% FAM) are added in a concentration range from 40 μM to 2.3 μM. The plates are kept in incubation for further 24 h.
At the end of the incubation time, the cells are incubated for 3 h with 1 mg/mL of MTT, dissolved in culture medium without FBS, to allow the formation of formazan crystals. Subsequently, 100 μL of DMSO are added to wells, stirring the plates for 30 min at room temperature to facilitate the complete dissolution of the crystals. Finally, the absorbance at 560 nm is measured in a microplate reader.
The results are expressed as relative percentage between absorbance of PA formulations against absorbance of its DMSO controls and CC50 and CC25 values are taken from dose–response curves.

HIV-1BaL = format: cell-based; settings: HIV-1BaL, TZM-bl cells; peptide 10-0.00061 μM for 1 h at 37 °C before virus; luciferase after 48 h; sigmoid fit; mean of triplicates
Method: HIV-1BaL[52] was provided by the NIH AIDS Research & Reference Reagent Program (http://www.aidsreagent.org/). Viral stock was prepared by passage through activated PBMCs[53] for 11 days.
Luciferase-reporter HeLa cells stably transfected to express CD4 and CCR5; TZM-bl cells[54]−[56] were grown in Dulbecco’s Minimal Essential Medium (DMEM) (Sigma-Aldrich, Inc., St. Louis, MO) containing 10% fetal calf serum (FCS), 2 mM L-glutamine, and antibiotics (100 U of penicillin/mL, 100 μg of streptomycin/mL) at 37 °C in an atmosphere containing 5% CO2.
All inhibition assays in cellular and tissue explants models were performed using a standardized amount of virus culture supernatant normalized for infectivity. TZM-bl cells were incubated with serial dilutions of peptides (from 10 μM to 0.00061 μM) for 1 h at 37 °C, prior to challenge with HIV-1BaL. Luciferase expression (r.l.u. values) was determined after 48 h. Alternatively, tissue explants were incubated with serial dilutions of peptide (from 100 μM to 0.1 μM) for 1 h before virus (10^4 TCID50/mL) was added for 2 h. Explants were then washed four times with PBS to remove unbound virus and drug. Colorectal explants were then transferred onto gelfoam rafts (Welbeck Pharmaceuticals, UK) and cultured for 15 days as described previously[57] […]. Explants were cultured for up to 15 days in the absence of peptide. Approximately 50% of the supernatants were harvested every 2–3 days and explants were re-fed with fresh media. The extent of viral replication in tissue explants was determined by measuring the p24 antigen concentration in supernatants (INNOTEST HIV antigen mAb; Fujirebio Europe, Belgium). The extent of inhibition by each peptide was calculated. The percentage of inhibition was normalized relative to the r.l.u, for TZM-bl cells, or p24, for tissue explants, values obtained for cells or explants cultured in the absence of virus (100% inhibition) and for cells or explants infected with virus in the absence of peptide (0% inhibition). Data are the mean (±SEM) of triplicates. When a dose–response curve was obtained, IC50 and, if possible, IC95 values were calculated from sigmoid curve fits (GraphPad Prism). For all curves, R^2 is >0.7.

[1] = Visual stability and aspect of POPC vesicles mixed with PAs (SAXS samples); format: physicochemical; settings: POPC 20 mM + 2 mM PA, 0.5% DMSO
Method: In Figure 5A,B, we show the spectra corresponding to POPC 20 mM and POPC 20 mM + 2 mM PAs (all of them in the presence of 0.5% DMSO). The band centered at 1.2 nm^–1 and the secondary band at 3.2 nm^–1 were typical of unilamellar vesicles.[35]
The incorporation of PAs had some distinct consequences. The first and more obvious one is the distinction between stable and unstable systems.

[2] = design: method as in 2 sources, ref 31, 32 = [31]; doi:10.1007/BF02682570; Schick M. J. ( 1966 ) Micelle formation in mixtures of nonionic and cationic detergents . J. Am. Oil Chem. Soc. 43 , 681 – 682 . 10.1007/BF02682570 . || [32]; doi:10.1016/0021-9797(70)90007-X; Barry B. W.; Morrison J. C.; Russell G. F. ( 1970 ) Prediction of the critical micelle concentration of mixtures of alkyltrimethylammonium salts . J. Colloid Interface Sci. 33 , 554 – 561 . 10.1016/ ||| ref 33, 34 = [33]; PMID 17658541; doi:10.1016/j.jcis.2007.06.010; Rodríguez J. L.; Sierra M. B.; Messina P. V.; Morini M. A.; Schulz P. C.; del Burgo P.; Junquera E.; Rodríguez A.; Aicart E. ( 2007 ) Surface and bulk properties of aqueous decyltrimethylammon || [34]; PMID 25356774; doi:10.1039/C4SM01575D; Pucci C.; Pérez L.; La Mesa C.; Pons R. ( 2014 ) Characterization and stability of catanionic vesicles formed by pseudo-tetraalkyl surfactant mixtures . Soft Matter 10 , 9657 – 9667 . 10.1039/C4SM0; settings: cited from earlier work

| SMILES | CC50 at 24 h (MTT cytotoxicity assay) | pIC50 (HIV-1BaL) | stability / aspect of the sample [1] | CMC [2] |
| --- | --- | --- | --- | --- |
| CCCCCCCCCCCCCCCCCCN(CCCCCCCCCCCCCCCCCC)C(=O)CCC(=O)NCCOCCOCCOCCOCCOCCOCCOCCOCCOCCOCCOCCOCCOCCOCCOCCOCCOCCOCCOCCOCCOCCOCCOCCOCCOCCOCCOCCOCCC(=O)N[C@@H](Cc1c[nH]c2ccccc12)C(=O)N[C@H](C(=O)N[C@@H](CC(C)C)C(=O)N[C@@H](CCC(=O)O)C(=O)N[C@@H](Cc1ccc(O)cc1)C(=O)N[C@@H](CC(C)C)C(=O)N[C@@H](Cc1c[nH]c2ccccc12)C(=O)N[C@@H](CCCCN)C(=O)N[C@H](C(=O)N1CCC[C@H]1C(=O)N[C@@H](Cc1ccccc1)C(=O)N[C@@H](CC(=O)O)C(=O)N[C@@H](Cc1ccccc1)C(=O)N[C@@H](Cc1c[nH]c2ccccc12)C(=O)N[C@@H](CCCNC(=N)N)C(=O)NCC(=O)N[C@H](C(=O)N[C@H](C(N)=O)[C@@H](C)CC)C(C)C)C(C)C)[C@@H](C)CC [N-PAdialkyl] ({N(octadecyl)2-Suc-PEG28}-WILEYLWKVPFDFWRGVI-NH2) | > 40000 nM | 6.82 | precipitated rather fast and made compact flocks |  |
| CCCCCCCCCCCCCCCCCCNC(=O)CCC(=O)NCCOCCOCCOCCOCCC(=O)N[C@@H](Cc1c[nH]c2ccccc12)C(=O)N[C@H](C(=O)N[C@@H](CC(C)C)C(=O)N[C@@H](CCC(=O)O)C(=O)N[C@@H](Cc1ccc(O)cc1)C(=O)N[C@@H](CC(C)C)C(=O)N[C@@H](Cc1c[nH]c2ccccc12)C(=O)N[C@@H](CCCCN)C(=O)N[C@H](C(=O)N1CCC[C@H]1C(=O)N[C@@H](Cc1ccccc1)C(=O)N[C@@H](CC(=O)O)C(=O)N[C@@H](Cc1ccccc1)C(=O)N[C@@H](Cc1c[nH]c2ccccc12)C(=O)N[C@@H](CCCNC(=N)N)C(=O)NCC(=O)N[C@H](C(=O)N[C@H](C(N)=O)[C@@H](C)CC)C(C)C)C(C)C)[C@@H](C)CC [PA1PEG3] ({NHOctadecyl-Suc-PEG4}-WILEYLWKVPFDFWRGVI-NH2) | > 40000 nM | 6.64 |  |  |
| CC[C@H](C)[C@H](NC(=O)[C@@H](NC(=O)CNC(=O)[C@H](CCCNC(=N)N)NC(=O)[C@H](Cc1c[nH]c2ccccc12)NC(=O)[C@H](Cc1ccccc1)NC(=O)[C@H](CC(=O)O)NC(=O)[C@H](Cc1ccccc1)NC(=O)[C@@H]1CCCN1C(=O)[C@@H](NC(=O)[C@H](CCCCN)NC(=O)[C@H](Cc1c[nH]c2ccccc12)NC(=O)[C@H](CC(C)C)NC(=O)[C@H](Cc1ccc(O)cc1)NC(=O)[C@H](CCC(=O)O)NC(=O)[C@H](CC(C)C)NC(=O)[C@@H](NC(=O)[C@H](Cc1c[nH]c2ccccc12)NC(=O)CCOCCOCCOCCOCCOCCOCCOCCOCCOCCOCCOCCOCCOCCOCCOCCOCCOCCOCCOCCOCCOCCOCCOCCOCCOCCOCCOCCOCCNC(=O)[C@@H](N)CSCC(=O)O[C@H]1CC[C@@]2(C)C(=CC[C@H]3[C@@H]4CC[C@H]([C@H](C)CCCC(C)C)[C@@]4(C)CC[C@@H]32)C1)[C@@H](C)CC)C(C)C)C(C)C)C(N)=O [N-PAchol] (H-C(X2)[PEG28]WILEYLWKVPFDFWRGVI-NH2) | > 40000 nM | 6.92 | milky |  |
| CCCCCCCCCCCCCCCCCCNC(=O)CCC(=O)NCCOCCOCCOCCOCCOCCOCCOCCOCCOCCOCCOCCOCCOCCOCCOCCOCCOCCOCCOCCOCCOCCOCCOCCOCCOCCOCCOCCOCCC(=O)NCCCC[C@H](NC(=O)[C@H](Cc1c[nH]c2ccccc12)NC(=O)[C@H](CC(C)C)NC(=O)[C@H](Cc1ccc(O)cc1)NC(=O)[C@H](CCC(=O)O)NC(=O)[C@H](CC(C)C)NC(=O)[C@@H](NC(=O)[C@@H](N)Cc1c[nH]c2ccccc12)[C@@H](C)CC)C(=O)N[C@H](C(=O)N1CCC[C@H]1C(=O)N[C@@H](Cc1ccccc1)C(=O)N[C@@H](CC(=O)O)C(=O)N[C@@H](Cc1ccccc1)C(=O)N[C@@H](Cc1c[nH]c2ccccc12)C(=O)N[C@@H](CCCNC(=N)N)C(=O)NCC(=O)N[C@H](C(=O)N[C@H](C(N)=O)[C@@H](C)CC)C(C)C)C(C)C [K-PAmonoalkyl] (H-WILEYLWK([PEG28-Suc-NHOctadecyl])VPFDFWRGVI-NH2) | 23000 nM | 6.43 | milky |  |
| CCCCCCCCCCCCCCCCCCN(CCCCCCCCCCCCCCCCCC)C(=O)CCC(=O)NCCOCCOCCOCCOCCC(=O)N[C@@H](Cc1c[nH]c2ccccc12)C(=O)N[C@H](C(=O)N[C@@H](CC(C)C)C(=O)N[C@@H](CCC(=O)O)C(=O)N[C@@H](Cc1ccc(O)cc1)C(=O)N[C@@H](CC(C)C)C(=O)N[C@@H](Cc1c[nH]c2ccccc12)C(=O)N[C@@H](CCCCN)C(=O)N[C@H](C(=O)N1CCC[C@H]1C(=O)N[C@@H](Cc1ccccc1)C(=O)N[C@@H](CC(=O)O)C(=O)N[C@@H](Cc1ccccc1)C(=O)N[C@@H](Cc1c[nH]c2ccccc12)C(=O)N[C@@H](CCCNC(=N)N)C(=O)NCC(=O)N[C@H](C(=O)N[C@H](C(N)=O)[C@@H](C)CC)C(C)C)C(C)C)[C@@H](C)CC [PA2PEG3] ({N(octadecyl)2-Suc-PEG4}-WILEYLWKVPFDFWRGVI-NH2) | > 40000 nM |  |  |  |
| CC[C@H](C)[C@H](NC(=O)[C@@H](NC(=O)CNC(=O)[C@H](CCCNC(=N)N)NC(=O)[C@H](Cc1c[nH]c2ccccc12)NC(=O)[C@H](Cc1ccccc1)NC(=O)[C@H](CC(=O)O)NC(=O)[C@H](Cc1ccccc1)NC(=O)[C@@H]1CCCN1C(=O)[C@@H](NC(=O)[C@H](CCCCN)NC(=O)[C@H](Cc1c[nH]c2ccccc12)NC(=O)[C@H](CC(C)C)NC(=O)[C@H](Cc1ccc(O)cc1)NC(=O)[C@H](CCC(=O)O)NC(=O)[C@H](CC(C)C)NC(=O)[C@@H](NC(=O)[C@H](Cc1c[nH]c2ccccc12)NC(=O)CCOCCOCCOCCOCCNC(=O)[C@@H](N)CSCC(=O)O[C@H]1CC[C@@]2(C)C(=CC[C@H]3[C@@H]4CC[C@H]([C@H](C)CCCC(C)C)[C@@]4(C)CC[C@@H]32)C1)[C@@H](C)CC)C(C)C)C(C)C)C(N)=O [PA3PEG3] (H-C(X2)[PEG4]WILEYLWKVPFDFWRGVI-NH2) | > 40000 nM | 5.70 |  |  |
| CCCCCCCCCCCCCCCC[N+](C)(C)C [hexadecyl trimethyl ammonium bromide] |  |  |  | 0.8 mM |
| CCCCCCCCCCCC[N+](C)(C)C.[Br-] [dodecyl trimethyl ammonium bromide] |  |  |  | 14.5 mM |
| CCCCCCCCCC[N+](C)(C)CCCCCCCCCC.[Br-] [didecyl dimethyl ammonium bromide] |  |  |  | 1.4 mM |
| CCCCCCCCCC[N+](C)(C)C.[Br-] [decyl trimethyl ammonium bromide] |  |  |  | 66.8 mM |
